Test [1] has as its target T1, Angiotensin II receptor (AT-1) type-1 (Rattus norvegicus, UniProt P29089+P25095).
T1 sequence (P29089 whole entry): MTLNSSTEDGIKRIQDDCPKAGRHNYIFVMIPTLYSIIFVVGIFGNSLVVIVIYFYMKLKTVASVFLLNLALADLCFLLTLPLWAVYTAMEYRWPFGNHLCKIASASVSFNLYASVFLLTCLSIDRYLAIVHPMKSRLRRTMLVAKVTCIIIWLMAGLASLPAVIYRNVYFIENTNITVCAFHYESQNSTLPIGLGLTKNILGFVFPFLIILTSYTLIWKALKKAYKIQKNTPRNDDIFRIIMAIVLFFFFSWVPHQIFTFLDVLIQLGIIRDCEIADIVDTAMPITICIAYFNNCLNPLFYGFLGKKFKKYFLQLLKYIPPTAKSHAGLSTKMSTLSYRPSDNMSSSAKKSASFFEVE
T1 sequence (P25095 whole entry): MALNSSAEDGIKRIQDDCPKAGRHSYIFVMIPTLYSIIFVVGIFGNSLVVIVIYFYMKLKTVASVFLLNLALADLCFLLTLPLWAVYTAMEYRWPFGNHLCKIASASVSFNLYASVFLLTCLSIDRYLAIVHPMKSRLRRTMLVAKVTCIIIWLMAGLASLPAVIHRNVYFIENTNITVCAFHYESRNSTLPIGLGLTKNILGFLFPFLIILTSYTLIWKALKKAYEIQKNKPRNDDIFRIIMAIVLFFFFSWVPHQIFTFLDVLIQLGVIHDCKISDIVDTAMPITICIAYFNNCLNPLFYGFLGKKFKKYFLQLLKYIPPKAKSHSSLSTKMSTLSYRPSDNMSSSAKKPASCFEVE
In words: In vitro displacement of [125I]angiotensin II from rat liver (Angiotensin 1 receptor) membrane preparation. (Displacement assays read how much labelled ligand stays bound in the presence of the test substance.)

For test [2], the target named is T2, Angiotensin II receptor (Rattus norvegicus) (UniProt P29089+P25095+P35351). In words: In vivo inhibition of pressor response induced by Angiotensin II (AII) following intravenous administration to pithed rats. Type of test: functional, organism-based.
Test [3] concerns the target T2, Angiotensin II receptor (Rattus norvegicus). In words: In vivo inhibition of pressor response induced by Angiotensin II (AII) following oral administration to pithed rats. The format is functional, organism-based.

T2 sequence (P35351 whole entry, looked up, one chain of several): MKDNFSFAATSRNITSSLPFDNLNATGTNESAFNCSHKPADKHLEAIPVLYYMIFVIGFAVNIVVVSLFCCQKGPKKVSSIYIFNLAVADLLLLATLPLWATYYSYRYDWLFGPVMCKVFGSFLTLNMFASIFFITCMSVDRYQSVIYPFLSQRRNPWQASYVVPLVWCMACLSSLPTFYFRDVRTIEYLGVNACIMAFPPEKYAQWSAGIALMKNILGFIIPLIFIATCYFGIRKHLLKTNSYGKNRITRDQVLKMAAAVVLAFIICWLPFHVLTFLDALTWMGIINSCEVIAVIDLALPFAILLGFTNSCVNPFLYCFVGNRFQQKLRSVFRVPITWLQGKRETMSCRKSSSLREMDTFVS

For `CCCc1nc(SC(F)F)c(C(=O)O)n1Cc1ccc(-c2ccccc2S(=O)(=O)NC(=O)Cc2ccc3ccccc3c2)cc1`, in test [1], the IC50 is 100 pM.

Take `CCCc1nc(SC(F)F)c(C(=O)O)n1Cc1ccc(-c2ccccc2S(=O)(=O)NC(=O)Cc2ccc(F)cc2)cc1`: in test [1], the IC50 turned out to be 100 pM. Also, the ID50 in test [2] stood at 0.43 mg/kg.

For `CCCCc1nc(SC)c(C(=O)O)n1Cc1ccc(-c2ccccc2S(=O)(=O)NC(=O)NCC2CCCCC2)cc1`, the IC50 in test [1] stood at 100 pM. The same compound gave an ID50 in test [2] of 0.35 mg/kg.

Compound `CCCc1nc(SC)c(C(=O)O)n1Cc1ccc(-c2ccccc2S(=O)(=O)NC(=O)NCC2CCCC2)cc1` returned an ID50 in test [3] of 1 mg/kg. Also, the IC50 in test [1] was determined as 100 pM.

`CCCCc1nc(SC(F)F)c(C(=O)O)n1Cc1ccc(-c2ccccc2S(=O)(=O)NC(=O)CC2CCCCC2)cc1`: the ID50 in test [3] turned out to be 1.7 mg/kg; in test [2] it was 0.6 mg/kg. Besides, in test [1], the IC50 stood at 200 pM.

In test [1], `CCCCc1nc(SC)c(C(=O)O)n1Cc1ccc(-c2ccccc2S(=O)(=O)NC(=O)NCc2ccccc2)cc1` showed an IC50 of 100 pM.

As to `CCCCc1nc(SC(F)F)c(C(=O)O)n1Cc1ccc(-c2ccccc2S(=O)(=O)NC(=O)CCC)cc1`, the ID50 came out at 0.8 mg/kg in test [3] and 0.09 mg/kg in test [2]. In addition, the IC50 in test [1] is 500 pM.

Regarding `CCCc1nc(SC)c(C(=O)O)n1Cc1ccc(-c2ccccc2S(=O)(=O)NC(=O)Nc2ccccc2)cc1`, the IC50 in test [1] was 2300 pM. The same compound came in with an ID50 in test [2] of 0.52 mg/kg.

For the compound `CCCc1nc(SC(F)F)c(C(=O)O)n1Cc1ccc(-c2ccccc2S(=O)(=O)NC(=O)Cc2ccc3c(c2)OCO3)cc1`, the values for the ID50 in test [3] and in test [2] were 10 mg/kg and 0.35 mg/kg, respectively. In test [1], this compound showed an IC50 of 300 pM.

Turning to `CCCc1nc(SC(F)F)c(C(=O)O)n1Cc1ccc(-c2ccccc2S(=O)(=O)NC(=O)C(C)c2ccccc2)cc1` (configuration not stated), in test [1], the IC50 amounted to 300 pM.

With `CCCc1nc(SC(F)F)c(C(=O)O)n1Cc1ccc(-c2ccccc2S(=O)(=O)NC(=O)CC2CCCCC2)cc1`, the ID50 in test [3] was 1.1 mg/kg; in test [2] it was 0.22 mg/kg. The same compound showed an IC50 in test [1] of 70 pM.

`CCCc1nc(SC(F)F)c(C(=O)O)n1Cc1ccc(-c2ccccc2S(=O)(=O)NC(=O)Cc2cccs2)cc1`: the results for the ID50 in test [3] and in test [2] were 3 mg/kg and 0.13 mg/kg, respectively. In test [1], the IC50 turned out to be 70 pM.

Regarding `CCCc1nc(SC)c(C(=O)O)n1Cc1ccc(-c2ccccc2S(=O)(=O)NC(=O)NCc2cccs2)cc1`, the ID50 in test [3] amounted to 1 mg/kg. The half-inhibitory concentration (IC50) in test [1] was found to be 100 pM.

`CCCc1nc(SC(F)F)c(C(=O)O)n1Cc1ccc(-c2ccccc2S(=O)(=O)NC(=O)Cc2ccccc2Cl)cc1` gave an IC50 in test [1] of 300 pM. Besides, the ID50 in test [2] was 0.8 mg/kg.

As to `CCc1nc(SC)c(C(=O)O)n1Cc1ccc(-c2ccccc2S(=O)(=O)NC(=O)NCC2CCCCC2)cc1`, the ID50 in test [3] is greater than 10 mg/kg; in test [2] it was 1.84 mg/kg. In test [1], this compound returned an IC50 of 1300 pM.

Regarding `CCCc1nc(SC)c(C(=O)O)n1Cc1ccc(-c2ccccc2S(=O)(=O)NC(=O)NCc2ccccc2)cc1`, the ID50 in test [3] worked out at 1.4 mg/kg; in test [2], 0.22 mg/kg. The compound further displayed an IC50 in test [1] of 200 pM.

In the case of `CCCc1nc(SC(F)F)c(C(=O)O)n1Cc1ccc(-c2ccccc2S(=O)(=O)NC(=O)Cc2ccccc2)cc1`, the ID50 in test [3] came out at 2 mg/kg; in test [2] it was 0.26 mg/kg. The compound also registered an IC50 in test [1] of 200 pM.

For `CCCCc1nc(SC)c(C(=O)O)n1Cc1ccc(-c2ccccc2S(=O)(=O)NC(=O)NCCC)cc1`, the ID50 in test [3] amounted to 0.7 mg/kg; in test [2], 0.11 mg/kg. The IC50 in test [1] is 500 pM.

On to `CCCCNC(=O)NS(=O)(=O)c1ccccc1-c1ccc(Cn2c(CCCC)nc(SC)c2C(=O)O)cc1`, for which the ID50 was found to be 0.2 mg/kg in test [3] and 0.09 mg/kg in test [2]. In addition, the IC50 in test [1] is 200 pM.

`CCc1nc(SC)c(C(=O)O)n1Cc1ccc(-c2ccccc2S(=O)(=O)NC(=O)NCc2ccccc2)cc1` showed a 50% inhibitory concentration (IC50) in test [1] of 100 pM. Also, in test [2], the ID50 is 1.37 mg/kg.

`CCCc1nc(SC(F)F)c(C(=O)O)n1Cc1ccc(-c2ccccc2S(=O)(=O)NC(=O)CCCc2ccccc2)cc1` gave an IC50 in test [1] of 700 pM. Moreover, the ID50 in test [2] worked out at 0.52 mg/kg.

`CCCCc1nc(SC)c(C(=O)O)n1Cc1ccc(-c2ccccc2S(=O)(=O)NC(=O)NC(c2ccccc2)c2ccccc2)cc1` showed an IC50 in test [1] of 400 pM.

In test [1], `CCCc1nc(SC(F)F)c(C(=O)O)n1Cc1ccc(-c2ccccc2S(=O)(=O)NC(=O)CCc2ccccc2)cc1` returned an IC50 of 100 pM. Further, the ID50 in test [2] was 0.64 mg/kg.

For `CCCCc1nc(SC(F)F)c(C(=O)O)n1Cc1ccc(-c2ccccc2S(=O)(=O)NC(=O)Cc2ccccc2)cc1`, the ID50 was 2.2 mg/kg in test [3] and 0.36 mg/kg in test [2]. In test [1], the IC50 stood at 150 pM.

As for `CCCCc1nc(SC)c(C(=O)O)n1Cc1ccc(-c2ccccc2S(=O)(=O)NC(=O)N(c2ccccc2)c2ccccc2)cc1`, in test [1], the IC50 was 1200 pM. The same compound showed an ID50 in test [2] of 5.8 mg/kg.

With `CCCc1nc(SC)c(C(=O)O)n1Cc1ccc(-c2ccccc2S(=O)(=O)NC(=O)NCC2CCCCC2)cc1`, the ID50 is 1.5 mg/kg in test [3] and 0.3 mg/kg in test [2]. In test [1], the IC50 was 100 pM.

For the compound `CCCc1nc(SC)c(C(=O)O)n1Cc1ccc(-c2ccccc2S(=O)(=O)NC(=O)NC2CCCCC2)cc1`, the IC50 in test [1] worked out at 500 pM.

On to `CCCCc1nc(SC)c(C(=O)O)n1Cc1ccc(-c2ccccc2S(=O)(=O)NC(=O)NCC)cc1`, for which the ID50 in test [3] was determined as 1.1 mg/kg; in test [2] it was 0.17 mg/kg. The same compound yielded an IC50 in test [1] of 200 pM.

For the compound `CCCCc1nc(SC)c(C(=O)O)n1Cc1ccc(-c2ccccc2S(=O)(=O)NC(=O)NC)cc1`, the ID50 in test [3] worked out at 4.9 mg/kg; in test [2], 0.27 mg/kg. Besides, the 50% inhibitory concentration (IC50) in test [1] came to 1900 pM.

`CCCc1nc(SC)c(C(=O)O)n1Cc1ccc(-c2ccccc2S(=O)(=O)NC(=O)Nc2ccc(C)cc2)cc1` registered an IC50 in test [1] of 1000 pM. The ID50 in test [2] stood at 0.87 mg/kg.

As for `CCCc1nc(SC(F)F)c(C(=O)O)n1Cc1ccc(-c2ccccc2S(=O)(=O)NC(=O)CCc2cccs2)cc1`, the ID50 was 3.1 mg/kg in test [3] and 0.33 mg/kg in test [2]. Further, in test [1], the IC50 came to 30 pM.

By IC50 is commonly meant the concentration at which inhibition is half-maximal. Low values mean higher potency, high ones lower potency.

The record behind these values is ChEMBL document CHEMBL1128069, “Balanced AT1 and AT2 angiotensin II antagonists. I. New orally active 5-carboxyl imidazolyl biphenyl sulfonylureas” (Bioorg Med Chem Lett, 1995).
